Data: patent publication US20250171400A1, “AZA-HETEROCYCLYL CARBOXAMIDE AND RELATED COMPOUNDS AND THEIR USE IN TREATING MEDICAL CONDITIONS” (X-BIOTIX THERAPEUTICS, INC., priority 2021, published 2025)
Values after ≈ are worked out from the molar mass of the structure shown. Where two headings read alike, the source gives them in different places.

Columns and labels:
E. coli LpxC = E. coli LpxC (Escherichia coli (strain K12), UniProt P0A725); assay: in vitro substrate deacetylation assay for inhibition of LpxC (ADDA analysis); type: biochemical; settings: 5 nM E. coli LpxC, 2.5 μM substrate, 1 hour at room temperature
Protocol: (§1) Exemplary compounds from the above Examples were tested for ability to inhibit LpxC activity using an in vitro substrate deacetylation assay with ADDA™ analysis. Assay procedures and results are described below.
Dilutions of test compound were pre-incubated with 5 nM P. aeruginosa or E. coli LpxC for 10 minutes at room temperature in 50 mM NaH2PO4, 500 mM sucrose, 0.2 mg/mL BSA, pH 7.2 and <1% DMSO. Reactions were initiated by the addition of 2× substrate (UDP-3-O—(R-3-hydroxydecanoyl)-N-acetylglucosamine, Carbosynth Ltd, UK, for P. aeruginosa LpxC and UDP-3-O—(R-3-hydroxymyristoyl)-N-acetylglucosamine, BOC Sciences, USA, for E. coli LpxC), in 50 mM NaH2PO4, 0.5 mg/mL BSA, pH 7.2, to a final concentration of 2.5 μM. Reactions proceeded for 1 hour at room temperature prior to quenching with and equal volume of 2% acetic acid.
For ADDA™ analysis, an aliquot of assay sample was withdrawn from each well of the 384-well plate and applied to a Hypercarb cartridge (Optimize Technologies, USA) under conditions designed to retain analytes of interest. Analytes were eluted using 1:1:2 acetone:acetonitrile:water containing 5 mM ammonium acetate then analysed by triple-quadrupole mass spectrometry. Mass spectrometry was carried out using electrospray ionization in negative ion mode. Daughter ion peaks representing detected substrate (P. aeruginosa: parent Q1 mass=775.8 amu, daughter Q3 mass=384.7 amu E. coli: parent Q1 mass=833.0 amu, daughter Q3 mass=385.0 amu, collision energy=analyte specific, dwell time=50 ms) were identified using a multiple-reaction monitoring protocol.
Total activity (0% inhibition) was obtained from reactions containing no compound, and 100% inhibition is defined as reactions in the presence of 1 μM CHIR-090 (N-[(1S,2R)-2-hydroxy-1-[(hydroxyamino)carbonyl]propyl]-4-[2-[4-(4-morpholinylmethyl)phenyl]ethynyl]-benzamide). For IC50 determinations, peak areas of the substrate and product were compared to compute the proportion of substrate reacted by the LpxC enzyme at each compound concentration. The fractional activity was converted to percentage inhibition and plotted against compound concentration in ActivityBase™ and fit using a four-parameter logistic using non-linear regression to yield the IC50 value.

[1] = test system: wild-type P. aeruginosa PAO1; assay: broth microdilution minimum inhibition concentration assay; type: cell-based; settings: Pseudomonas aeruginosa
Protocol: (§2) Exemplary compounds from the above Examples were tested to determine their minimum inhibitory concentration (MIC) for exemplary strains of Eschericia and Pseudomonas bacteria using broth microdilution methods. Assay procedures and results are described below.
(§3) Broth microdilution assays were conducted according to Clinical and Laboratory Standards Institute guidelines (CLSI, M07-A11: Clinical and Laboratory Standards Institute. Methods for Dilution Antimicrobial Susceptibility Tests for Bacteria that Grow Aerobically; Approved Standard—11th Edition. Wayne, PA: CLSI, 2018.). Briefly, a 0.5 McFarland standard suspension was made from bacterial isolates on non-selective, solid media. The inocula were adjusted to give a bacterial concentration of 1×10^6 CFU/mL. Serial doubling-dilutions of each compound were prepared in cation-adjusted Mueller-Hinton broth (Sigma-Aldrich) in 96-well microdilution plates. A 50 μL aliquot of the inoculum was added to each microdilution plate and, within 15 minutes, incubated at 37° C. in air for 16-20 h. […] The test was controlled by the determination of piperacillin MIC against both E. coli ATCC 25922 and P. aeruginosa ATCC 27853 and ensuring accordance with the ranges published in CLSI supplementary document M100 (CLSI, M100Ed29: Clinical and Laboratory Standards Institute. Performance Standards for Antimicrobial Susceptibility Testing, 29th Edition. Wayne, PA: CLSI, 2018.).
(§4) Multiple enterobacteriaceae strains were tested, including E. coli ATCC 25922 and K. pneumoniae ATCC 43816. WT E. coli BW25113 was tested with an isogenic mutant deficient in acrA mediated efflux by clean deletion. WT P. aeruginosa PAO1 was tested with an isogenic mutant deficient in MexA mediated efflux by clean deletion.
(§5) Experimental results are provided in Table 4, which provides MIC values for wild-type E. coli BW25113 (“E. coli WT MIC”), an isogenic mutant deficient in acrA mediated efflux by clean deletion (“E. coli KO MIC”), wild-type P. aeruginosa PAO1 (“P. aeruginosa WT MIC”), and an isogenic mutant deficient in MexA mediated efflux by clean deletion (“[…]”).

[2] = test system: P. aeruginosa PAO1 isogenic mutant deficient in MexA mediated efflux; assay: as above; type: cell-based; settings: Pseudomonas aeruginosa, PAO1, read-out: P. aeruginosa KO MIC
Protocol: as §2, §3, §4, §5

[3] = test system: wild-type E. coli BW25113; assay: as above; type: cell-based; settings: Escherichia coli; wild-type E. coli BW25113, 37° C. 16-20 h; read-out: E. coli WT MIC
Protocol: as §2, §3, §4, §5

[4] = test system: E. coli BW25113 isogenic mutant deficient in acrA mediated efflux; assay: as above; type: cell-based; settings: Escherichia coli, BW25113, read-out: E. coli KO MIC
Protocol: as §2, §3, §4, §5

P. aeruginosa LpxC = P. aeruginosa LpxC (Pseudomonas aeruginosa (strain ATCC 15692 / DSM 22644 / CIP 104116 / JCM 14847 / LMG 12228 / 1C / PRS 101 / PAO1), UniProt P47205); assay: biochemical; type: biochemical; settings: 5 nM P. aeruginosa LpxC, 2.5 μM substrate, 1 hour at room temperature
Protocol: as §1
For ADDA™ analysis, an aliquot of assay sample was withdrawn from each well of the 384-well plate and applied to a Hypercarb cartridge (Optimize Technologies, USA) under conditions designed to retain analytes of interest. Analytes were eluted using 1:1:2 acetone:acetonitrile:water containing 5 mM ammonium acetate then analysed by triple-quadrupole mass spectrometry. Mass spectrometry was carried out using electrospray ionization in negative ion mode.
For IC50 determinations, peak areas of the substrate and product were compared to compute the proportion of substrate reacted by the LpxC enzyme at each compound concentration.

[5] = PAO1, read-out: P. aeruginosa WT MIC
[6] = wild-type P. aeruginosa PAO1, 37° C. 16-20 h, read-out: P. aeruginosa WT MIC

Chain of E. coli LpxC (P0A725 whole entry): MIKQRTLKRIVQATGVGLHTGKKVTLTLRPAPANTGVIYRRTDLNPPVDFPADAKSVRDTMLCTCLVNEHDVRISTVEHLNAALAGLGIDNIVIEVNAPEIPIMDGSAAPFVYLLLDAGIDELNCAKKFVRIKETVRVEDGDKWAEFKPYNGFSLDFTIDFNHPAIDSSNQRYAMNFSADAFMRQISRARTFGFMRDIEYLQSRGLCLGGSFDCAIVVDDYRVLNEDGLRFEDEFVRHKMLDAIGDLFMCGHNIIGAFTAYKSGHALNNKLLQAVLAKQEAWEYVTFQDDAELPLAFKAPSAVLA

Structure (SMILES) | IC50 (E. coli LpxC) [nM] | MIC [1, 5] [µM] | MIC [2] [µM] | MIC [3] [µM] | MIC [4] [µM] | IC50 (P. aeruginosa LpxC) [nM] | MIC [1, 6] [µM]
NCCCC(=O)N1C[C@H](NC(=O)[C@@H]2C[C@H](F)CN2)C[C@@H]1C(=O)NCc1ccc(C#CC#CC2CC2)cc1 [Example 9O] | 2500 to 10000 | > 100 | > 100 | > 100 | > 100 | 50 to 100 | –
CC(C)C(=O)N1C[C@H](NC(=O)[C@@H]2C[C@H](F)CN2)C[C@@H]1C(=O)NCc1ccc(C#CC#Cc2ccccc2)cc1 [Example 9AT] | 500 to 2500 | – | < 20 | > 100 | < 20 | < 50 | > 100
CS(=O)(=O)CCN1C[C@H](NC(=O)[C@@H]2C[C@H](F)CN2)C[C@@H]1C(=O)NCc1ccc(C#CC#CC2CC2)cc1 [Example 9AP] | 500 to 2500 | > 100 | > 100 | > 100 | > 100 | 100 to 1000 | –
C[C@@H](CN)C(=O)N1C[C@H](NC(=O)[C@@H]2C[C@H](F)CN2)C[C@@H]1C(=O)NCc1ccc(C#CC#CC2CC2)cc1 [Example 9S] | 500 to 2500 | > 100 | > 100 | > 100 | > 100 | 50 to 100 | –
COC(=O)N1C[C@H](NC(=O)[C@@H]2C[C@H](F)CN2)C[C@@H]1C(=O)NCc1ccc(C#Cc2ccc(CN3CCOCC3)cc2)cc1 [Example 9AG] | < 500 | – | < 20 | 20 to 100 (≈ 11.8 to 59.2 µg/mL) | < 20 | < 50 | > 100
O=C(NC[C@H]1C[C@@H](NC(=O)[C@@H]2C[C@H](F)CN2)CN1C(=O)C1CC1)c1ccc(C#Cc2ccc(CN3CCOCC3)cc2)c(F)c1 [Example 8, (2S,4S)—N-((3R,5R)-1-(cyclopropanecarbonyl)-5-((3-fluoro-4-((4-(morpholinomethyl)phenyl)ethynyl)benzamido)methyl)pyrrolidin-3-yl)-4-fluoropyrrolidine-2-carboxamide] | < 500 | – | < 20 | < 20 | < 20 | < 50 | 20 to 100 (≈ 12.4 to 62 µg/mL)
CNCCC(=O)N1C[C@H](NC(=O)[C@@H]2C[C@H](F)CN2)C[C@@H]1C(=O)NCc1ccc(C#CC#CC2CC2)cc1 [Example 9Q] | 2500 to 10000 | > 100 | > 100 | > 100 | > 100 | 50 to 100 | –
COCCN(C(=O)[C@@H]1C[C@H](F)CN1)[C@@H]1C[C@H](C(=O)NCc2ccc(C#Cc3ccc(CN4CCOCC4)cc3)cc2)N(C(=O)C2CC2)C1 [Example 9AV, (2R,4R)-1-(Cyclopropanecarbonyl)-4-((2S,4S)-4-fluoro-N-(2-methoxyethyl)pyrrolidine-2-carboxamido)-N-(4-((4-(morpholinomethyl)phenyl)ethynyl)benzyl)pyrrolidine-2-carboxamide] | > 10000 | – | > 100 | > 100 | > 100 | > 1000 | > 100
CC(C)C(=O)N1C[C@H](NC(=O)[C@H]2NCC[C@H]2O)C[C@@H]1C(=O)NCc1ccc(C#Cc2ccc(CN3CCOCC3)cc2)cc1 [Example 9V] | 2500 to 10000 | > 100 | > 100 | > 100 | > 100 | 100 to 1000 | –
N[C@H]1C[C@H](C(=O)N2C[C@H](NC(=O)[C@@H]3C[C@H](F)CN3)C[C@@H]2C(=O)NCc2ccc(C#CC#CC3CC3)cc2)C1 [Example 9AF] | 500 to 2500 | > 100 | > 100 | > 100 | > 100 | 50 to 100 | –
O=C(N[C@@H]1C[C@H](C(=O)NCc2ccc(C#Cc3ccc(CN4CCOCC4)cc3)cc2)N(C(=O)C2CC2)C1)[C@@H]1C[C@H](F)CN1 [Example 9AJ] | < 500 | – | < 20 | 20 to 100 (≈ 12 to 60.2 µg/mL) | < 20 | < 50 | > 100
CC(C)C(=O)N1C[C@H](NC(=O)[C@@H]2C[C@@H](F)CN2)C[C@@H]1C(=O)NCc1ccc(C#Cc2ccc(CN3CCOCC3)cc2)cc1 [Example 9H] | 2500 to 10000 | > 100 | > 100 | > 100 | > 100 | 100 to 1000 | –
O=C(NC[C@H]1C[C@@H](NC(=O)[C@@H]2C[C@H](F)CN2)CN1C(=O)C1CC1)c1ccc(C#Cc2ccc(CN3CCOCC3)cc2)cc1Cl [Example 6, (2S,4S)—N-((3R,5R)-5-((2-Chloro-4-((4-(morpholinomethyl)phenyl)ethynyl)benzamido)methyl)-1-(cyclopropanecarbonyl)pyrrolidin-3-yl)-4-fluoropyrrolidine-2-carboxamide] | < 500 | > 100 | < 20 | < 20 | < 20 | 50 to 100 | –
COCCN1C[C@H](NC(=O)[C@@H]2C[C@H](F)CN2)C[C@@H]1C(=O)NCc1ccc(C#CC#CC2CC2)cc1 [Example 9AM, (2R,4R)—N-(4-(Cyclopropylbuta-1,3-diyn-1-yl)benzyl)-4-((2S,4S)-4-fluoropyrrolidine-2-carboxamido)-1-(2-methoxyethyl)pyrrolidine-2-carboxamide] | 2500 to 10000 | > 100 | > 100 | > 100 | > 100 | 100 to 1000 | –
O=C(O)CN1C[C@H](NC(=O)[C@@H]2C[C@H](F)CN2)C[C@@H]1C(=O)NCc1ccc(C#CC#CC2CC2)cc1 [Example 9AN, 2-((2R,4R)-2-((4-(Cyclopropylbuta-1,3-diyn-1-yl)benzyl)carbamoyl)-4-((2S,4S)-4-fluoropyrrolidine-2-carboxamido)pyrrolidin-1-yl)acetic acid] | < 500 | > 100 | 20 to 100 (≈ 9.61 to 48.1 µg/mL) | > 100 | > 100 | 50 to 100 | –
CC(C)C(=O)N1C[C@H](NC(=O)[C@@H]2CC(F)(F)CN2)C[C@@H]1C(=O)NCc1ccc(C#CC#CC2CC2)cc1 [Example 9G] | 500 to 2500 | > 100 | 20 to 100 (≈ 10.2 to 51.1 µg/mL) | > 100 | 20 to 100 (≈ 10.2 to 51.1 µg/mL) | 50 to 100 | –
